Results as given in patent US10829497B2, “Crystal form II of thienopyridine derivative bisulfate and preparation method therefor and use thereof” (ZHONGRONG KAITE (BEIJING) BIOTECHNOLOGY CO., LTD., priority 2017, dated 2020).
Where two headings read alike, the source gives them in different places.

Protocol: Stability Study of the Hydrogen Sulfate Crystal Form I and Form II of the Compound of Formula I Under High Temperature and High Humidity Conditions
Setting the hydrogen sulfate crystal form I and form II of the compound of formula I at temperature of 60° C. and high humidity (25° C., relative humidity of 90%±5%) respectively for 10 days. Samples were taken on the 0, 5th and 10th days and determined by high performance liquid chromatography to investigate the changes in impurities.
Chromatographic conditions: Agilent 1100 for high performance liquid chromatography; chromatographic column ULTRON ES-OVM (5 μm, 4.6 mm×150 mm); mobile phase 0.01 mol/L potassium dihydrogen phosphate aqueous solution-acetonitrile (80:20); detection wavelength 220 nm; column temperature 30° C.; flow rate 1.0 mL/min; injection volume 10 μL.
Test method: accurately weighting 5 mg of the test probe, placing it in a 10 mL volumetric flask, adding 1 mL of methanol, dissolving with ultrasound, diluting to the mark with mobile phase and shaking to make a test solution with a concentration of 0.5 mg/mL. Precisely injecting 10 μL of the test solution into the liquid chromatography, recording the chromatogram and calculating the total content of impurities according to peak area normalization method.

Row | Structure (SMILES) | Total Impurity Content (peak area %) (High Humidity (25° C., relative humidity of 90%±5%), 0 day, listed as I) | Total Impurity Content (peak area %) (High Humidity (25° C., relative humidity of 90%±5%), 5th day, listed as I) | Total Impurity Content (peak area %) (High Humidity (25° C., relative humidity of 90%±5%), 10th day, listed as I) | Total Impurity Growth Rate (High Humidity (25° C., relative humidity of 90%±5%), 10 days, listed as I) | Total Impurity Content (peak area %) (High Temperature (60° C.), 0 day, listed as I) | Total Impurity Content (peak area %) (High Temperature (60° C.), 5th day, listed as I) | Total Impurity Content (peak area %) (High Temperature (60° C.), 10th day, listed as I) | Total Impurity Growth Rate (High Temperature (60° C.), 10 days, listed as I) | Total Impurity Content (peak area %) (High Humidity (25° C., relative humidity of 90%±5%), 0 day, listed as II) | Total Impurity Content (peak area %) (High Humidity (25° C., relative humidity of 90%±5%), 5th day, listed as II) | Total Impurity Content (peak area %) (High Humidity (25° C., relative humidity of 90%±5%), 10th day, listed as II) | Total Impurity Growth Rate (High Humidity (25° C., relative humidity of 90%±5%), 10 days, listed as II) | Total Impurity Content (peak area %) (High Temperature (60° C.), 0 day, listed as II) | Total Impurity Content (peak area %) (High Temperature (60° C.), 5th day, listed as II) | Total Impurity Content (peak area %) (High Temperature (60° C.), 10th day, listed as II) | Total Impurity Growth Rate (High Temperature (60° C.), 10 days, listed as II) | stability compared with the hydrogen sulfate form I (high temperature and high humidity conditions, 10 days)
1 | [2H]C([2H])([2H])OC(=O)[C@H](c1ccccc1Cl)N1CCc2sccc2C1 [Crystal Form I, Methyl-d3 (2S)-2-(2-chlorophenyl)-2-(6,7-dihydrothieno[3,2-c]pyridin-5(4H)-yl)acetate] | 0.386 peak area % | 0.438 peak area % | 0.576 peak area % | 49.2% | 0.386 peak area % | 0.597 peak area % | 0.812 peak area % | 110% |  |  |  |  |  |  |  |  | 
2 | [2H]C([2H])([2H])OC(=O)[C@H](c1ccccc1Cl)N1CCc2sccc2C1 [Crystal Form II, Methyl-d3 (2S)-2-(2-chlorophenyl)-2-(6,7-dihydrothieno[3,2-c]pyridin-5(4H)-yl)acetate] |  |  |  |  |  |  |  |  | 0.372 peak area % | 0.409 peak area % | 0.533 peak area % | 43.3% | 0.372 peak area % | 0.526 peak area % | 0.737 peak area % | 98.1% | better stability
